Here are results for nine compounds from US8772307B2, “Substituted spiro compounds and their use for producing pain-relief medicaments” (Gruenenthal GmbH, priority 2005, dated 2014).

The inhibition is the relative decrease from the control value, in per cent.

Assay [1] concerns the target T1, rat-species vanilloid receptor 1 (VR1/TRPV1) (Rattus norvegicus, UniProt O35433).
T1 construct: endogenous in cells; host or cells: primary cells dissociated from rat dorsal root ganglia (DRG)
As to the kind of experiment: Functional testing on vanilloid receptor 1 (VR1/TRPV1): FLIPR Ca2+ inflow assay in rat dorsal root ganglia cells (% activation / % inhibition vs capsaicin). In kind it is cell-based. The note with it: for inhibition at 10 µM: inhibition compared to 10 μM CP (capsaicin); for activation at 10 µM: stimulation compared to 10 μM CP (capsaicin). Summed up:
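Rat dorsal root ganglion cells, dissociated with collagenase and trypsin, were plated at 3×10^5/mL on laminin-coated plates in NGF-containing HAMS F12 and cultured 2-3 days at 37° C. Ca2+ inflow read by Fluo-4 fluorescence on FLIPR; test compounds at 10 μM referenced to 10 μM capsaicin.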

A further assay concerns the target T2, vanilloid receptor (VR1) (Homo sapiens, UniProt Q8NER1).
T2 construct: expressed in transfected cells; host or cells: CHO K1 cells (ECACC), stably transfected
Put plainly: Functional testing on vanilloid receptor (VR1): FLIPR Ca2+ inflow assay in CHO K1 cells stably transfected with the VR1 gene. The assay is classed as cell-based. The note with it: for inhibition at 10 µM: CHO-K1, inhibition compared to 10 μM CP (capsaicin); for activation at 10 µM: CHO-K1, stimulation compared to 10 μM CP (capsaicin). Summed up: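 CHO K1 cells stably expressing VR1, loaded with Fluo-4 (2 μM, 30 min, 37° C); peak Ca²⁺ fluorescence read on FLIPR. Compound (10 μM) added first, agonism as % of 10 μM capsaicin signal; after 5 min, 100 nM capsaicin added, % inhibition calculated relative to maximal inhibition with 10 μM capsaicin.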

T2 sequence (Q8NER1 whole entry): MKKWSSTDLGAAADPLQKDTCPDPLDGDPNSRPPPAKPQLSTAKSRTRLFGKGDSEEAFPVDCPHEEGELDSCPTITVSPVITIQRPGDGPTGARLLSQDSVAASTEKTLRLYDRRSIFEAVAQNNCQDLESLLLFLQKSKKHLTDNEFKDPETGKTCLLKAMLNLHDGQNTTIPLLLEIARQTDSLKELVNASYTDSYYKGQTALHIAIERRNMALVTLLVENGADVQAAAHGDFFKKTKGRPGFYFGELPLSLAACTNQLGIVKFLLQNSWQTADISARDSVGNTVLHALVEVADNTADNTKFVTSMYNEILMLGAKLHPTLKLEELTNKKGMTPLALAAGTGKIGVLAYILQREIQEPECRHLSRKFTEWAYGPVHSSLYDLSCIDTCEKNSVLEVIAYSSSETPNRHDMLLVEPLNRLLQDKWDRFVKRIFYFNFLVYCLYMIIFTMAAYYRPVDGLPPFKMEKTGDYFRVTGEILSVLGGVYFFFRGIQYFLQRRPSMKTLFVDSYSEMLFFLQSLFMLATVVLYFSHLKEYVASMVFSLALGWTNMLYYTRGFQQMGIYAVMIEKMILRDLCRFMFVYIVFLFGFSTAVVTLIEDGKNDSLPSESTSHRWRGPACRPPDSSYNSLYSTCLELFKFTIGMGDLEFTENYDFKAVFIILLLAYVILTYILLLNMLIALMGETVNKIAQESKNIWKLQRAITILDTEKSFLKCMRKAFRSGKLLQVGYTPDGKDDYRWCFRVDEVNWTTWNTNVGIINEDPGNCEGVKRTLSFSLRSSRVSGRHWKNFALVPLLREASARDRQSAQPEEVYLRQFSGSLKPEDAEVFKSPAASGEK
T1 sequence (O35433 whole entry): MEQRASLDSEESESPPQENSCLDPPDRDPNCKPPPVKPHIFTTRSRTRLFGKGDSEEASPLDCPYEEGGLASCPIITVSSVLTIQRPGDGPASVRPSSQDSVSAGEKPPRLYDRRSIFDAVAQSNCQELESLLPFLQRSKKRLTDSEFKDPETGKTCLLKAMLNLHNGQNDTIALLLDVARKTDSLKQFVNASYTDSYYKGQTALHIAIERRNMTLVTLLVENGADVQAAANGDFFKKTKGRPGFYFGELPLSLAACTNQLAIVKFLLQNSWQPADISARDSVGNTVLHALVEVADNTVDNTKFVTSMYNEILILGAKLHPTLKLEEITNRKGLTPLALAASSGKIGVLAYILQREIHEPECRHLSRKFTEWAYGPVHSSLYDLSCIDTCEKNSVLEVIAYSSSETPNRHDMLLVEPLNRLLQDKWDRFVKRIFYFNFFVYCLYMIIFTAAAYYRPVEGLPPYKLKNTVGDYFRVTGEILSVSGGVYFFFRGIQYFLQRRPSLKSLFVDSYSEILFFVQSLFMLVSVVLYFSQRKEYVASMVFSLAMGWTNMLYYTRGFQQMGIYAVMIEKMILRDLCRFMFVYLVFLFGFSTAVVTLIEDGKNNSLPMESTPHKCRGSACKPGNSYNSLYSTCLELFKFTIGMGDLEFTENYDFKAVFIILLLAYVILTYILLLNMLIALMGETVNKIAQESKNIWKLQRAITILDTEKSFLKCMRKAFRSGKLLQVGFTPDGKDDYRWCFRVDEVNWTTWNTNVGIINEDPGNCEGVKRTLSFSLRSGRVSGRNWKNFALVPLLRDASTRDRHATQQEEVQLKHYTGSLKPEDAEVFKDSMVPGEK

With `CC(C)(C)c1ccc(NC(=O)N2CCC3(CC(c4ccccc4)=NO3)C2)cc1` (stereo not drawn) [Compound 371, N-(4-tert-butylphenyl)-3-phenyl-1-oxa-2,7-diazaspiro[4.4]non-2-ene-7-carboxamide], in assay [1], the inhibition at 10 µM was 99% and the activation at 10 µM was 35%. At vanilloid receptor (VR1), the inhibition at 10 µM was found to be 12% and the activation at 10 µM stood at 1%.

Regarding `COc1cccc(C2=NOC3(CCN(C(=S)Nc4ccc(C(C)(C)C)cc4)CC3)C2)c1` [Compound 278, 3-(3-methoxyphenyl)-1-oxa-2,8-diazaspiro[4.5]dec-2-ene-8-thiocarboxylic acid-(4-tert-butylphenyl)amide], in assay [1], the inhibition at 10 µM turned out to be 88.1% and the activation at 10 µM is 0.73%. Also, on vanilloid receptor (VR1), the inhibition at 10 µM turned out to be 28.1% and the activation at 10 µM was determined as 0.66%.

Take `O=C(Nc1ccc(C(F)(F)F)cc1)N1CCC2(CC1)CC(c1ccc(Cl)cc1)=NO2` [Compound 212, 3-(4-chlorophenyl)-1-oxa-2,8-diazaspiro[4.5]dec-2-ene-8-carboxylic acid-(4-trifluoromethylphenyl)amide]: in assay [1], the inhibition at 10 µM worked out at 61.9% and the activation at 10 µM is -0.43%. In addition, on vanilloid receptor (VR1), the inhibition at 10 µM was -16.1% and the activation at 10 µM was -0.21%.

On to `O=C(/C=C/c1ccc(C(F)(F)F)nc1N1CCCCC1)N1CCC2(CC1)CC(c1cccc(F)c1)=NO2` [Compound 365, (E)-1-(3-(3-fluorophenyl)-1-oxa-2,8-diazaspiro[4.5]dec-2-en-8-yl)-3-(2-(piperidin-1-yl)-6-(trifluoromethyl)pyridin-3-yl)prop-2-en-1-one], for which, in assay [1], the inhibition at 10 µM was 94% and the activation at 10 µM was determined as 0%. In addition, on vanilloid receptor (VR1), the inhibition at 10 µM was 74% and the activation at 10 µM is -1%.

With `CCc1ccc(NC(=O)N2CCC3(CC2)CC(c2ccc(Cl)cc2)=NO3)cc1` [Compound 164, 3-(4-chlorophenyl)-1-oxa-2,8-diazaspiro[4.5]dec-2-ene-8-carboxylic acid-(4-ethylphenyl)amide], in assay [1], the inhibition at 10 µM turned out to be 72.9% and the activation at 10 µM was -0.43%. On vanilloid receptor (VR1), the inhibition at 10 µM was -2.13% and the activation at 10 µM is -0.04%.

With `CSc1ccc(NC(=O)N2CCC3(CC2)CC(c2ccc(C)cc2)=NO3)cc1` [Compound 69, 3-p-tolyl-1-oxa-2,8-diazaspiro[4.5]dec-2-ene-8-carboxylic acid-(4-methylsulphanylphenyl)amide], the inhibition at 10 µM in assay [1] was 87.2%; at vanilloid receptor (VR1), 7.01%. The activation at 10 µM was -0.47% in assay [1] and -0.32% at vanilloid receptor (VR1).

For `CC(C(=O)N1CCC2(CC1)CC(c1cccc(F)c1)=NO2)c1ccc(NS(C)(=O)=O)c(F)c1` (stereo not drawn) [Compound 366, N-(2-fluoro-4-(1-(3-(3-fluorophenyl)-1-oxa-2,8-diazaspiro[4.5]dec-2-en-8-yl)-1-oxopropan-2-yl)phenyl)methanesulphonamide], in assay [1], the inhibition at 10 µM worked out at 29% and the activation at 10 µM is 0%. Also, on vanilloid receptor (VR1), the inhibition at 10 µM was -20% and the activation at 10 µM is -1%.

Consider `Cc1ccc(C2=NOC3(CCN(C(=O)Nc4ccc(C(C)C)cc4)CC3)C2)cc1` [Compound 81, 3-p-tolyl-1-oxa-2,8-diazaspiro[4.5]dec-2-ene-8-carboxylic acid-(4-isopropylphenyl)amide], for which, in assay [1], the inhibition at 10 µM was 58.8% and the activation at 10 µM is -0.47%. In addition, on vanilloid receptor (VR1), the inhibition at 10 µM was -2.79% and the activation at 10 µM is -0.35%.

As to `COc1cccc(C2=NOC3(CCN(C(=O)Nc4cc(C(F)(F)F)ccc4Cl)CC3)C2)c1` [Compound 221, 3-(3-methoxyphenyl)-1-oxa-2,8-diazaspiro[4.5]dec-2-ene-8-carboxylic acid-(2-chloro-5-trifluoromethylphenyl)amide], the inhibition at 10 µM is 72.8% in assay [1] and -11.6% on vanilloid receptor (VR1). Moreover, the activation at 10 µM in assay [1] was 0.95%; at vanilloid receptor (VR1) it was -0.04%.
